These results are taken from patent US11155517B2, “4-substituted phenylamine derivatives and their use to protect crops by fighting undesired phytopathogenic micoorganisms” (PI INDUSTRIES LTD., priority 2016, dated 2021).

Assay type in all cases: cell-based
For one experiment, the system named is Fusarium culmorum. In words: Fusarium culmorum (foot rot of cereals) in vitro test, radial growth on Potato Dextrose Agar. The settings on record: Fusarium culmorum, 168 h, read-out: % control compared to the untreated check (radial growth).
For the next experiment, the system named is Alternaria solani. Briefly: Alternaria solani (early blight of tomato/potato) in vitro test, radial growth on Potato Dextrose Agar. Conditions: 168 h, 300 ppm, seven days, 25° C., read-out: % control compared to the untreated check (radial growth).
In a further experiment the test system is Rhizoctonia solani. In words: Rhizoctonia solani (rice sheath blight/potato black scurf) in vitro test, radial growth on Potato Dextrose Agar. The settings on record: 168 h, 300 ppm, seven days, 25° C., read-out: % control compared to the untreated check (radial growth).
The next experiment concerns Colletotrichum capsici. In words: Colletotrichum capsici (anthracnose) in vitro test, radial growth on Potato Dextrose Agar. Conditions: Colletotrichum truncatum, 168 h; 300 ppm; seven days, 25° C.; read-out: % control compared to the untreated check (radial growth).
The subject of the next experiment is Botrytis cinerea. In words: Botrytis cinerea (gray mold) in vitro test, radial growth on Potato Dextrose Agar. Conditions: 168 h, 300 ppm, seven days, 22° C., read-out: % (control) compared to the untreated check (radial growth).
Another experiment relates to Septoria lycopersici. In words: Septoria lycopersici (leaf spot of tomato) in vitro test, radial growth on Potato Dextrose Agar. The settings on record: 168 h, seven days, 25° C., read-out: % control compared to the untreated check (radial growth).
The next experiment concerns Pyricularia oryzae. Briefly: microbe, parasite or virus in culture. The settings on record: 168 h, read-out: % control compared to the untreated check (radial growth).

In the case of `CCN(C)C=Nc1cc(C)c(Cc2c(F)cccc2C(F)(F)F)cc1Cl` [Compound 220, N′-(2-chloro-4-(2-fluoro-6-(trifluoromethyl)benzyl)-5-methylphenyl)-N-ethyl-N-methylformimidamide], the inhibition of growth at 300 ppm with Fusarium culmorum was 75%; with Alternaria solani, more than 75%; with Rhizoctonia solani, more than 80%; with Colletotrichum capsici, more than 80%; with Botrytis cinerea it was more than 80%; in the experiment with Septoria lycopersici it was more than 70%. The inhibition of growth at 300 ppm in the experiment with Pyricularia oryzae is more than 75%.
For the compound `CCN(C)C=Nc1cc(Cl)c(Cc2cccc(F)c2)cc1C` [Compound 259, N′-(5-chloro-4-(3-fluorobenzyl)-2-methylphenyl)-N-ethyl-N-methylformimidamide], the inhibition of growth at 300 ppm is 75% in the experiment with Fusarium culmorum; more than 75% in the experiment on Alternaria solani; more than 80% in the experiment with Rhizoctonia solani; more than 80% in the experiment with Colletotrichum capsici; more than 80% in the experiment on Botrytis cinerea; more than 70% with Septoria lycopersici. For the same compound, in the experiment with Pyricularia oryzae, the inhibition of growth at 300 ppm is more than 75%.
Turning to `CCN(C)C=Nc1cc(C)c(Cc2ccc(Cl)c(C(F)(F)F)c2)cc1C` [Compound 142, N′-(4-(4-chloro-3-(trifluoromethyl)benzyl)-2,5-dimethylphenyl)-N-ethyl-N-methylformimidamide], the inhibition of growth at 300 ppm in the experiment on Fusarium culmorum is 75%; in the experiment on Alternaria solani, more than 75%; with Rhizoctonia solani, more than 80%; with Colletotrichum capsici, more than 80%; in the experiment with Botrytis cinerea, more than 80%; in the experiment with Septoria lycopersici, more than 70%. For the same compound, the inhibition of growth at 300 ppm with Pyricularia oryzae was more than 75%.
Regarding `CCN(C)C=Nc1cc(C)c(Cc2ccccc2Cl)cc1F` [Compound 213, N′-(4-(2-chlorobenzyl)-2-fluoro-5-methylphenyl)-N-ethyl-N-methylformimidamide], the inhibition of growth at 300 ppm is 75% with Fusarium culmorum; more than 75% with Alternaria solani; more than 80% with Rhizoctonia solani; more than 80% in the experiment on Colletotrichum capsici; more than 80% in the experiment on Botrytis cinerea; more than 70% with Septoria lycopersici. Further, the inhibition of growth at 300 ppm in the experiment on Pyricularia oryzae is more than 75%.
Regarding `CCN(C)C=Nc1cc(C)c(Cc2cc(C)cc(F)c2)cc1C` [Compound 200, N-ethyl-N′-(4-(3-fluoro-5-methylbenzyl)-2,5-dimethylphenyl)-N-methylformimidamide], the inhibition of growth at 300 ppm in the experiment with Fusarium culmorum is 75%; in the experiment with Alternaria solani, more than 75%; in the experiment on Rhizoctonia solani, more than 80%; with Colletotrichum capsici, more than 80%; in the experiment on Botrytis cinerea it was more than 80%; in the experiment on Septoria lycopersici it was more than 70%. Further, in the experiment with Pyricularia oryzae, the inhibition of growth at 300 ppm is more than 75%.
For the compound `CCN(C)C=Nc1cc(C)c(Cc2ccc(Cl)c(C)c2)cc1C` [Compound 108, N′-(4-(4-chloro-3-methylbenzyl)-2,5-dimethylphenyl)-N-ethyl-N-methylformimidamide], the inhibition of growth at 300 ppm in the experiment on Fusarium culmorum was 75%; in the experiment on Alternaria solani it was more than 75%; in the experiment with Rhizoctonia solani, more than 80%; in the experiment on Colletotrichum capsici, more than 80%; in the experiment on Botrytis cinerea, more than 80%; in the experiment on Septoria lycopersici, more than 70%. The inhibition of growth at 300 ppm with Pyricularia oryzae was more than 75%.
In the case of `CCN(C)C=Nc1cc(C)c(Cc2cccc(C(F)(F)F)c2)cc1C` [Compound 46, N′-(2,5-dimethyl-4-(3-(trifluoromethyl)benzyl)phenyl)-N-ethyl-N-methylformimidamide], the inhibition of growth at 300 ppm in the experiment with Fusarium culmorum was 75%; in the experiment on Alternaria solani, more than 75%; in the experiment on Rhizoctonia solani, more than 80%; in the experiment on Colletotrichum capsici, more than 80%; in the experiment with Botrytis cinerea, more than 80%; with Septoria lycopersici it was more than 70%. The inhibition of growth at 300 ppm in the experiment on Pyricularia oryzae is more than 75%.
Consider `CCN(C)C=Nc1cc(C)c(Cc2cccc(OC(F)(F)F)c2)cc1F` [Compound 206, N-ethyl-N′-(2-fluoro-5-methyl-4-(3-(trifluoromethoxy)benzyl)phenyl)-N-methylformimidamide], for which the inhibition of growth at 300 ppm with Fusarium culmorum was 75%; in the experiment on Alternaria solani, more than 75%; in the experiment on Rhizoctonia solani, more than 80%; with Colletotrichum capsici, more than 80%; in the experiment with Botrytis cinerea, more than 80%; in the experiment on Septoria lycopersici, more than 70%. In addition, the inhibition of growth at 300 ppm in the experiment with Pyricularia oryzae was more than 75%.
As for `CCN(C)C=Nc1cc(C)c(Cc2ccc(F)c(F)c2)cc1Cl` [Compound 138, N′-(2-chloro-4-(3,4-difluorobenzyl)-5-methylphenyl)-N-ethyl-N-methylformimidamide], the inhibition of growth at 300 ppm is 75% in the experiment on Fusarium culmorum; more than 75% with Alternaria solani; more than 80% in the experiment on Rhizoctonia solani; more than 80% in the experiment on Colletotrichum capsici; more than 80% in the experiment on Botrytis cinerea; more than 70% in the experiment on Septoria lycopersici. In addition, in the experiment on Pyricularia oryzae, the inhibition of growth at 300 ppm was more than 75%.
As to `C=CCN(C)C=Nc1cc(C)c(Cc2ccccc2Cl)cc1C` [Compound 84, N-allyl-N′-(4-(2-chlorobenzyl)-2,5-dimethylphenyl)-N-methylformimidamide], the inhibition of growth at 300 ppm in the experiment on Fusarium culmorum was 75%; in the experiment on Alternaria solani, more than 75%; in the experiment with Rhizoctonia solani, more than 80%; with Colletotrichum capsici, more than 80%; in the experiment on Botrytis cinerea, more than 80%; in the experiment on Septoria lycopersici, more than 70%. In addition, the inhibition of growth at 300 ppm in the experiment with Pyricularia oryzae is more than 75%.
Turning to `CCN(C)C=Nc1cc(C)c(Cc2ccc(OC(F)(F)F)cc2)cc1C` [Compound 117, N′-(2,5-dimethyl-4-(4-(trifluoromethoxy)benzyl)phenyl)-N-ethyl-N-methylformimidamide], the inhibition of growth at 300 ppm in the experiment on Fusarium culmorum was 75%; with Alternaria solani it was more than 75%; in the experiment with Rhizoctonia solani it was more than 80%; with Colletotrichum capsici, more than 80%; in the experiment on Botrytis cinerea, more than 80%; in the experiment on Septoria lycopersici, more than 70%. The inhibition of growth at 300 ppm with Pyricularia oryzae is more than 75%.
As to `CCN(C)C=Nc1cc(C)c(Cc2ccc(OC)cc2)cc1C` [Compound 54, N-ethyl-N′-(4-(4-methoxybenzyl)-2,5-dimethylphenyl)-N-methylformimidamide], the inhibition of growth at 300 ppm in the experiment on Fusarium culmorum was 75%; in the experiment on Alternaria solani, more than 75%; in the experiment on Rhizoctonia solani, more than 80%; in the experiment on Colletotrichum capsici, more than 80%; in the experiment on Botrytis cinerea, more than 80%; with Septoria lycopersici, more than 70%. For the same compound, in the experiment on Pyricularia oryzae, the inhibition of growth at 300 ppm is more than 75%.
With `CCN(C)C=Nc1cc(C)c(Cc2ccc(C(F)(F)F)cc2F)cc1C` [Compound 201, N-ethyl-N′-(4-(2-fluoro-4-(trifluoromethyl)benzyl)-2,5-dimethylphenyl)-N-methylformimidamide], the inhibition of growth at 300 ppm is 75% in the experiment on Fusarium culmorum; more than 75% with Alternaria solani; more than 80% in the experiment on Rhizoctonia solani; more than 80% in the experiment on Colletotrichum capsici; more than 80% with Botrytis cinerea; more than 70% in the experiment with Septoria lycopersici. Also, the inhibition of growth at 300 ppm with Pyricularia oryzae was more than 75%.
Consider `CCN(C)C=Nc1cc(C(F)(F)F)c(Cc2cccc(C)c2)cc1C1CC1` [Compound 263, N′-(2-cyclopropyl-4-(3-methylbenzyl)-5-(trifluoromethyl)phenyl)-N-ethyl-N-methylformimidamide], for which the inhibition of growth at 300 ppm with Fusarium culmorum is 75%; with Alternaria solani it was more than 75%; with Rhizoctonia solani, more than 80%; in the experiment with Colletotrichum capsici, more than 80%; with Botrytis cinerea, more than 80%; with Septoria lycopersici, more than 70%. In addition, the inhibition of growth at 300 ppm in the experiment with Pyricularia oryzae was more than 75%.
With `CCN(C)C=Nc1cc(C)c(Cc2cc(F)ccc2Cl)cc1C` [Compound 143, N′-(4-(2-chloro-5-fluorobenzyl)-2,5-dimethylphenyl)-N-ethyl-N-methylformimidamide], the inhibition of growth at 300 ppm in the experiment with Fusarium culmorum was 75%; with Alternaria solani, more than 75%; with Rhizoctonia solani, more than 80%; in the experiment with Colletotrichum capsici, more than 80%; in the experiment with Botrytis cinerea, more than 80%; with Septoria lycopersici it was more than 70%. For the same compound, the inhibition of growth at 300 ppm with Pyricularia oryzae is more than 75%.
Consider `CCN(C)C=Nc1cc(C)c(Cc2cccc([N+](=O)[O-])c2)cc1C` [Compound 49, N′-(2,5-dimethyl-4-(3-nitrobenzyl)phenyl)-N-ethyl-N-methylformimidamide], for which the inhibition of growth at 300 ppm was 75% in the experiment on Fusarium culmorum; more than 75% in the experiment with Alternaria solani; more than 80% with Rhizoctonia solani; more than 80% in the experiment with Colletotrichum capsici; more than 80% in the experiment on Botrytis cinerea; more than 70% in the experiment on Septoria lycopersici. For the same compound, in the experiment with Pyricularia oryzae, the inhibition of growth at 300 ppm is more than 75%.
With `CCN(C)C=Nc1cc(C)c(Cc2ccc(F)cc2C)cc1Cl` [Compound 167, N′-(2-chloro-4-(4-fluoro-2-methylbenzyl)-5-methylphenyl)-N-ethyl-N-methylformimidamide], the inhibition of growth at 300 ppm in the experiment on Fusarium culmorum is 75%; in the experiment with Alternaria solani, more than 75%; in the experiment with Rhizoctonia solani it was more than 80%; in the experiment with Colletotrichum capsici, more than 80%; in the experiment on Botrytis cinerea, more than 80%; with Septoria lycopersici, more than 70%. Also, the inhibition of growth at 300 ppm with Pyricularia oryzae was more than 75%.
